How the values were obtained:
Assay in all cases: relative viability (nuclei count vs DMSO), 5 days (fraction); higher = more cells survive
Cediranib + Foretinib = compound: COc1cc2c(Oc3ccc4[nH]c(C)cc4c3F)ncnc2cc1OCCCN1CCCC1 [Cediranib] + COc1cc2c(Oc3ccc(NC(=O)C4(C(=O)Nc5ccc(F)cc5)CC4)cc3F)ccnc2cc1OCCCN1CCOCC1 [Foretinib] (partner 0.25 µM)
Method in brief: (§1)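 One day after seeding in 1536-well plates, lung cancer cell lines were dosed by pin tool. Dosing was either single-drug or a fixed anchor-drug dose plus five library-drug doses (not always all listed) in √10 steps. After 5 days, nuclei were stained in one fix-and-stain step and counted on 4× images, and relative viability is the nuclei count of treated wells over that of vehicle wells, given as the median of duplicate plates.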

Decitabine + OSI-027 = compound: Nc1ncn([C@H]2C[C@H](O)[C@@H](CO)O2)c(=O)n1 [Decitabine] + COc1cccc2cc(-c3nc([C@H]4CC[C@H](C(=O)O)CC4)n4ncnc(N)c34)[nH]c12 [OSI-027] (partner 0.5 µM)
Method in brief: as §1

Cediranib + Decitabine = compound: COc1cc2c(Oc3ccc4[nH]c(C)cc4c3F)ncnc2cc1OCCCN1CCCC1 [Cediranib] + Nc1ncn([C@H]2C[C@H](O)[C@@H](CO)O2)c(=O)n1 [Decitabine] (partner 2 µM)
Method in brief: as §1

[1] = compound: O=C(C[C@H]1NCCC[C@@H]1O)Cn1cnc2cc(Br)c(Cl)cc2c1=O (racemic) [Halofuginone] + CS(=O)(=O)N1CCN(Cc2cc3nc(-c4cccc5[nH]ncc45)nc(N4CCOCC4)c3s2)CC1 [Pictilisib] (partner 1 µM)
Method in brief: as §1

Row | Cell Line | relative viability (Cediranib + Foretinib; first compound 0.04 µM) | relative viability (Cediranib + Foretinib; first compound 0.1265 µM) | relative viability (Cediranib + Foretinib; first compound 0.4 µM) | relative viability (Cediranib + Foretinib; first compound 1.265 µM) | relative viability (Cediranib + Foretinib; first compound 4 µM) | relative viability (Decitabine + OSI-027; first compound 0.04 µM) | relative viability (Decitabine + OSI-027; first compound 0.1265 µM) | relative viability (Decitabine + OSI-027; first compound 0.4 µM) | relative viability (Decitabine + OSI-027; first compound 1.265 µM) | relative viability (Decitabine + OSI-027; first compound 4 µM) | relative viability (Cediranib + Decitabine; first compound 0.04 µM) | relative viability (Cediranib + Decitabine; first compound 0.1265 µM) | relative viability (Cediranib + Decitabine; first compound 0.4 µM) | relative viability (Cediranib + Decitabine; first compound 1.265 µM) | relative viability (Cediranib + Decitabine; first compound 4 µM) | relative viability ([1]; first compound 0.001 µM) | relative viability ([1]; first compound 0.003162 µM) | relative viability ([1]; first compound 0.01 µM) | relative viability ([1]; first compound 0.03162 µM) | relative viability ([1]; first compound 0.1 µM)
1 | NCI-H1623 | 0.974 | 0.59 | 0.793 | 0.861 | 0.805 | 0.359 | 0.438 | 0.427 | 0.4 | 0.363 | – | – | – | – | – | – | – | – | – | –
2 | HCC-827 | 1.2 | – | 0.986 | 1.05 | 1.03 | 0.129 | 0.37 | 0.311 | 0.202 | 0.27 | 0.314 | 0.23 | 0.358 | 0.297 | 0.311 | 0.874 | 1.05 | 0.962 | 1.08 | 0.777
3 | NCI-H322M | 1.15 | 1.04 | 0.946 | 0.912 | 0.922 | 0.507 | 0.496 | 0.432 | 0.473 | 0.441 | 0.606 | 0.837 | 0.715 | 0.688 | 0.654 | 0.484 | 0.514 | 0.489 | 0.486 | 0.502
4 | ChaGo-K-1 | 0.921 | 0.833 | 0.837 | 0.897 | 1 | 0.493 | 0.483 | 0.299 | 0.32 | 0.41 | 0.51 | 0.376 | 0.506 | 0.57 | 0.784 | 0.587 | 0.397 | 0.683 | 0.669 | 0.776
5 | BEN | 0.745 | – | 0.707 | 0.344 | 0.682 | 0.297 | 0.315 | 0.273 | 0.295 | 0.289 | 0.732 | 0.431 | 0.74 | 0.509 | 0.722 | 0.52 | 0.587 | 0.547 | 0.594 | 0.425
6 | NCI-H2347 | 0.918 | 1.03 | 0.996 | 0.833 | 0.957 | 0.382 | 0.478 | 0.34 | 0.402 | 0.383 | 0.671 | 0.703 | 0.617 | 0.659 | 0.568 | 0.759 | 0.636 | 0.445 | 0.699 | 0.374
7 | LOU-NH91 | 0.903 | 1.12 | 0.859 | 0.961 | 0.829 | 0.497 | 0.738 | 0.621 | 0.629 | 0.672 | 0.787 | 0.831 | 0.81 | 0.792 | 0.8 | 0.574 | 0.51 | 0.503 | 0.52 | 0.514
8 | NCI-H2228 | 0.986 | 0.882 | 0.761 | 0.838 | 0.99 | 0.418 | 0.431 | 0.205 | 0.103 | 0.207 | – | – | – | – | – | 0.355 | 0.455 | 0.398 | 0.224 | 0.095
9 | NCI-H2342 | 1.14 | 1.07 | 0.927 | 1.06 | 1.12 | 0.544 | 0.583 | 0.565 | 0.595 | 0.599 | 0.83 | 0.827 | 0.732 | 0.74 | 0.812 | – | – | – | – | –
10 | HCC-366 | 0.935 | 0.902 | 0.772 | 0.94 | 1.01 | 0.859 | 0.915 | 0.485 | 0.253 | 0.176 | 0.379 | 0.318 | 0.305 | 0.364 | 0.338 | 0.231 | 0.14 | 0.216 | 0.144 | 0.184
11 | NCI-H2405 | 1.1 | 1.13 | 1.03 | 1.1 | 1.02 | 0.555 | 0.564 | 0.543 | 0.444 | 0.399 | 0.68 | 0.758 | 0.71 | 0.661 | 0.793 | 0.522 | 0.504 | 0.512 | 0.478 | 0.421
12 | Calu-6 | 0.921 | 0.944 | 0.857 | 0.863 | 0.911 | – | – | – | – | – | – | – | – | – | – | 0.968 | 0.873 | 0.849 | 0.327 | 0.11
13 | 201T | 1.28 | 1.57 | 1.03 | 1.02 | 0.754 | 0.72 | 0.681 | 0.62 | 0.464 | 0.403 | 0.876 | 0.89 | 0.889 | 0.868 | 0.878 | 0.708 | 0.647 | 0.666 | 0.597 | 0.516
14 | CAL-12T | 1.1 | 1.02 | 1.09 | 1.12 | 1.2 | 0.558 | 0.612 | – | 0.305 | 0.268 | – | – | – | – | – | 0.691 | 0.277 | – | 0.468 | 0.323
15 | HCC-44 | – | – | – | – | – | – | 0.739 | 0.232 | 0.364 | 0.49 | 0.932 | 0.629 | 0.93 | 0.934 | 0.958 | 0.545 | 0.605 | 0.592 | 0.67 | 0.399
16 | NCI-H358 | 0.712 | 0.809 | 0.677 | 0.616 | 0.763 | 0.372 | 0.254 | 0.2 | 0.113 | 0.12 | 0.214 | 0.256 | 0.215 | 0.186 | 0.213 | 0.364 | 0.351 | 0.359 | 0.245 | 0.196
17 | SW 900 | 0.535 | 0.877 | 0.878 | 0.98 | 1.18 | 0.321 | 0.349 | 0.191 | 0.183 | 0.175 | 0.45 | 0.421 | 0.425 | 0.444 | 0.53 | – | – | – | – | –
18 | NCI-H2087 | 1.19 | 1.06 | 0.944 | 1.15 | 1.29 | 0.376 | 0.348 | 0.317 | 0.257 | 0.28 | 0.22 | 0.35 | 0.308 | 0.328 | 0.276 | 0.986 | 1.01 | 0.799 | 1 | 0.831

Reference: the supplement of paper PMC10307832
